# Reference: patent US9849212B2, “Implants for inducing soft and hard tissue integration” (NUMAT BIOMEDICAL S.L., priority 2013, dated 2017)
# Assays:
# Type in all cases: physicochemical
# [1] = Biomolecule release by UV-vis spectrometry after 24 h incubation in water; conditions: covalent linking via APTES, water pH 7.5, 37° C.
# Description: The biomolecule release from functionalized implants after 24 h incubation in water at pH 7.5 and 37° C. was determined by UV-Vis spectroscopy. Implants were placed in a 96 well plate and 200 μl of water at pH 7.5 were added to each well. Samples were incubated at 37° C. during 24 h. Then, a 150 μl aliquot was withdrawn and the absorbance (λmax taxifolin=290 nm, λmax quercitrin=350 nm) was measured using a Biotek UV-vis plate reader spectrophotometer. Two sample replicates were measured.
# [2] = Flavonoid release profile by UV-Vis spectroscopy, simulating hUC-MSCs culture media changes; conditions: water pH 7.5, 37° C.
# Description: (§1) The flavonoid release profile from coated surfaces in water media, simulating physiologic conditions (pH 7.5, 37° C.) was measured by UV-Vis spectroscopy. Implants were placed in a 96 well plate and 200 μl of water at pH 7.5 were added to each well. […] Each time, a 150 μl aliquot was withdrawn and the absorbance (λTaxifolin=290 nm, λQuercitrin=350 nm) was measured in a 96 well Elisa plate using a Biotek UV-vis plate reader spectrophotometer. The concentration of flavonoid was calculated from interpolation of data in flavonoid standard calibration curves. Two replicates were measured for each sample. Passivated Ti substrates were used as blank samples for drop casted implants. Silanized Ti substrates were used as blank for covalently linked samples.
# [3] = Flavonoid release profile by UV-Vis spectroscopy, simulating HGF culture media changes; conditions: water pH 7.5, 37° C.
# Description: as §1
# [4] = Schiff base, not reduced (experiment FL14)
structure (smiles),measurement,setting,value
"O=C1c2c(O)cc(O)cc2O[C@H](c2ccc(O)c(O)c2)[C@H]1O [TX, taxifolin]","C μM, 24 h (release of flavonoid to water media)","[1]; Ti pretreat. UV, reduction step No (Schiff base)",5.06 ± 0.59 µM
same,"C μM, 24 h (release of flavonoid to water media)","[1]; Ti pretreat. UV, reduction step Yes (reduced Schiff base)",No det.
same,"C μM, 24 h (release of flavonoid to water media)","[1]; Ti pretreat. passivation, reduction step No (Schiff base)",10.22 ± 1.88 µM
same,"C μM, 24 h (release of flavonoid to water media)","[1]; Ti pretreat. passivation, reduction step Yes (reduced Schiff base)",No det.
same,total amount released after 14 days,"[2]; Schiff base, not reduced (experiment FL17)",2.6 ± 0.2 nmol
same,total amount released to media,"[2]; drop casted substrates (experiment FL16), initial 20 nmol/disk taxifolin, 50 nmol/disk quercitrin, up to 14 days",19.7 ± 0.7 nmol
same,flavonoid detected in the media,"[2]; reduced Schiff base surfaces (experiment FL18), up to 14 days",No taxifolin neither quercitrin were detected
same,cumulative release at day one,[3]; [4],12.4 ± 4.0 nmol
same,released amount from 1 to 14 days,[3]; [4],not significant
same,flavonoid released to the media after 1 h of incubation,"[3]; covalently linked by Schiff base formation, not reduced (experiment FL14)",7.9 ± 2.7 nmol
same,completeness of release at day 1,"[3]; drop casted substrates (experiment FL13), 6 nmol/disk taxifolin",almost complete
same,flavonoid released to the media after 1 h of incubation,"[3]; drop casted substrates (experiment FL13), initial 6 nmol/disk taxifolin, 100 nmol/disk quercitrin",~3.2 ± 0.4 nmol
same,flavonoid detected in the media,"[3]; reduced Schiff base surfaces (experiment FL15), up to 14 days",No taxifolin neither quercitrin were detected
